Reference: patent US20170086461A1, “SYNERGISTIC ANTIMICROBIAL COMPOSITION” (Dow Global Technologies LLC, priority 2015, published 2017)

System: Pseudomonas aeruginosa DSM # 939
Test: Minimum Inhibitory Concentration (MIC) test with synergy index (Kull method)
Assay type: cell-based
Conditions: single biocide acting alone; TSB broth, 30° C., 48 hours, ~1×10^6 CFU/ml
Method: The synergism of the biocides combination of the present invention was determined using the method described by Kull, F.C., et. al in Applied Microbiology 9:538-541 (1961).
The formula to calculate the synergy index (SI) is
• QA=concentration of compound A in ppm, acting alone produced an end point (growth/no growth) • Qa=concentration of compound A in ppm, in the mixture, which produced an end point (growth/no growth) • QB=concentration of compound B in ppm, acting alone produced an end point (growth/no growth) • Qb=concentration of compound B in ppm, in the mixture, which produced an end point (growth/no growth)
The Minimum Inhibitory Test (MIC) is designed to evaluate the lowest concentration of a biocide, biocide blend or biocide combination to prevent bacteria growing in a defined broth.
Minimum Inhibitory Concentration (MIC) Testing Protocol • 1. […]
The culture was maintained as a glycerol stock at −80° C. in cryovials. […] Reading of the results was carried out by measuring absorbance at 600 nm for each sample at the beginning of the test (tzero) and after incubation (tendpoint). tendpoint was chosen at 48 hours for bacteria. The difference in absorbance between tendpoint and tzero was used to assign a score (Δ>0.2 confirms growth while Δ≦0.2 confirms no growth) from which the MIC values were calculated.

For `Cc1cc(O)ccc1Cl` [Chlorocresol, 4-chloro-3-methylphenol], the “Minimum Concentration (active ppm) to Inhibit Growth, active alone” value was 1539 ppm.

With `Cn1sc2ccccc2c1=O` [MBIT, 2-methyl-1,2-benzothiazol-3(2H)-one] the “Minimum Concentration (active ppm) to Inhibit Growth, active alone” value was 62 ppm.
